Species on record: Rattus norvegicus
Test: Open TG-GATES - Regimen: Single
Format: toxicity, organism-based, Sprague-Dawley
Parameters: regimen Single, gender Male, age 6 weeks
Conditions: in vivo, po, 0 mg/kg, route gavage, dose level Control; for APTT / Bas / Eos / Fbg / Hb / Ht / Lym / MCH / MCHC / MCV / Mono / Neu / PT / Plat / RBC / Ret / WBC: tissue Blood; for KIDNEY_L / KIDNEY_R / KIDNEY_TOTAL: tissue Kidney; for LIVER: tissue Liver; for A/G / ALP / ALT / AST / BUN / CRE / Ca / Cl / DBIL / GLC / IP / K / LDH / Na / PL / RALB / TBIL / TC / TG / TP / gamma-GTP: tissue Plasma

C[C@H]1C(=O)O[C@@H]2CCN3CC=C(COC(=O)[C@](C)(O)[C@]1(C)O)[C@H]23 [MONOCROTALINE]
TERMINAL_BW (3 h): 217.7 g | APTT (3 h): 20.3 s | Bas (3 h): 0% | Eos (3 h): 0.8% | Fbg (3 h): 316 mg/dL | Hb (3 h): 12.9 g/dL | Ht (3 h): 37.7% | Lym (3 h): 76.4% | MCH (3 h): 21.8 pg | MCHC (3 h): 34.2% | MCV (3 h): 63.8 fL | Mono (3 h): 3.2% | Neu (3 h): 19% | PT (3 h): 16.8 s | Plat (3 h): 116.9 x10_4/uL | RBC (3 h): 591.6 x10_4/ul | Ret (3 h): 9.3% | WBC (3 h): 86.4 x10_2/uL | KIDNEY_L (3 h): 1 g | KIDNEY_R (3 h): 1 g | KIDNEY_TOTAL (3 h): 2 g | LIVER (3 h): 10.4 g | A/G (3 h): 1.3 | ALP (3 h): 1563.2 IU/L | ALT (3 h): 38 IU/L | AST (3 h): 66.8 IU/L | BUN (3 h): 13.4 mg/dL | CRE (3 h): 0.2 mg/dL | Ca (3 h): 10.7 mg/dL | Cl (3 h): 106.6 meq/L | DBIL (3 h): 0.002 mg/dL | GLC (3 h): 185.6 mg/dL | IP (3 h): 8.3 mg/dL | K (3 h): 4 meq/L | LDH (3 h): 161 IU/L | Na (3 h): 142.6 meq/L | PL (3 h): 141.8 mg/dL | RALB (3 h): 3.1 g/dL | TBIL (3 h): 0.028 mg/dL | TC (3 h): 78.2 mg/dL | TG (3 h): 58.6 mg/dL | TP (3 h): 5.4 g/dL | gamma-GTP (3 h): 1 IU/L | TERMINAL_BW (6 h): 200.2 g | APTT (6 h): 20.2 s | Bas (6 h): 0% | Eos (6 h): 1% | Fbg (6 h): 316 mg/dL | Hb (6 h): 13.4 g/dL | Ht (6 h): 39.5% | Lym (6 h): 81% | MCH (6 h): 21.5 pg | MCHC (6 h): 33.9% | MCV (6 h): 63.2 fL | Mono (6 h): 2.8% | Neu (6 h): 14.8% | PT (6 h): 16.2 s | Plat (6 h): 112.4 x10_4/uL | RBC (6 h): 626.4 x10_4/ul | Ret (6 h): 7.8% | WBC (6 h): 94 x10_2/uL | KIDNEY_L (6 h): 0.9 g | KIDNEY_R (6 h): 0.9 g | KIDNEY_TOTAL (6 h): 1.9 g | LIVER (6 h): 8.5 g | A/G (6 h): 1.3 | ALP (6 h): 1365.8 IU/L | ALT (6 h): 37.6 IU/L | AST (6 h): 71.6 IU/L | BUN (6 h): 11.4 mg/dL | CRE (6 h): 0.1 mg/dL | Ca (6 h): 10.6 mg/dL | Cl (6 h): 106.8 meq/L | DBIL (6 h): 0.004 mg/dL | GLC (6 h): 176 mg/dL | IP (6 h): 9 mg/dL | K (6 h): 4.2 meq/L | LDH (6 h): 230.6 IU/L | Na (6 h): 142.6 meq/L | PL (6 h): 132.4 mg/dL | RALB (6 h): 3.1 g/dL | TBIL (6 h): 0.026 mg/dL | TC (6 h): 75.2 mg/dL | TG (6 h): 56 mg/dL | TP (6 h): 5.5 g/dL | gamma-GTP (6 h): 1.2 IU/L | TERMINAL_BW (9 h): 207.2 g | APTT (9 h): 19.8 s | Bas (9 h): 0% | Eos (9 h): 1% | Fbg (9 h): 300.8 mg/dL | Hb (9 h): 13.3 g/dL | Ht (9 h): 38.8% | Lym (9 h): 73% | MCH (9 h): 21.4 pg | MCHC (9 h): 34.2% | MCV (9 h): 62.7 fL | Mono (9 h): 2.6% | Neu (9 h): 22.4% | PT (9 h): 16.2 s | Plat (9 h): 110.9 x10_4/uL | RBC (9 h): 618.6 x10_4/ul | Ret (9 h): 8.7% | WBC (9 h): 92.3 x10_2/uL | KIDNEY_L (9 h): 0.9 g | KIDNEY_R (9 h): 1 g | KIDNEY_TOTAL (9 h): 1.9 g | LIVER (9 h): 8.6 g | A/G (9 h): 1.3 | ALP (9 h): 1373.4 IU/L | ALT (9 h): 38 IU/L | AST (9 h): 67.8 IU/L | BUN (9 h): 10.4 mg/dL | CRE (9 h): 0.2 mg/dL | Ca (9 h): 10.4 mg/dL | Cl (9 h): 106.8 meq/L | DBIL (9 h): 0.004 mg/dL | GLC (9 h): 174.2 mg/dL | IP (9 h): 9.1 mg/dL | K (9 h): 4.1 meq/L | LDH (9 h): 184.2 IU/L | Na (9 h): 142 meq/L | PL (9 h): 137 mg/dL | RALB (9 h): 3.1 g/dL | TBIL (9 h): 0.028 mg/dL | TC (9 h): 83.2 mg/dL | TG (9 h): 50.4 mg/dL | TP (9 h): 5.4 g/dL | gamma-GTP (9 h): 1 IU/L | TERMINAL_BW (24 h): 221.9 g | APTT (24 h): 22 s | Bas (24 h): 0% | Eos (24 h): 1% | Fbg (24 h): 299 mg/dL | Hb (24 h): 12.9 g/dL | Ht (24 h): 37.9% | Lym (24 h): 83% | MCH (24 h): 20.8 pg | MCHC (24 h): 34.1% | MCV (24 h): 61.1 fL | Mono (24 h): 2.8% | Neu (24 h): 12.6% | PT (24 h): 16.5 s | Plat (24 h): 119.4 x10_4/uL | RBC (24 h): 620.4 x10_4/ul | Ret (24 h): 8.4% | WBC (24 h): 85.2 x10_2/uL | KIDNEY_L (24 h): 1 g | KIDNEY_R (24 h): 1 g | KIDNEY_TOTAL (24 h): 2 g | LIVER (24 h): 10.5 g | A/G (24 h): 1.3 | ALP (24 h): 1787.6 IU/L | ALT (24 h): 44.4 IU/L | AST (24 h): 74 IU/L | BUN (24 h): 18.4 mg/dL | CRE (24 h): 0.2 mg/dL | Ca (24 h): 10.7 mg/dL | Cl (24 h): 105 meq/L | DBIL (24 h): 0.006 mg/dL | GLC (24 h): 187.6 mg/dL | IP (24 h): 6.8 mg/dL | K (24 h): 4.2 meq/L | LDH (24 h): 227.2 IU/L | Na (24 h): 141.2 meq/L | PL (24 h): 150.4 mg/dL | RALB (24 h): 3.2 g/dL | TBIL (24 h): 0.008 mg/dL | TC (24 h): 78.2 mg/dL | TG (24 h): 101.6 mg/dL | TP (24 h): 5.6 g/dL | gamma-GTP (24 h): 1 IU/L

Reference: ChEMBL document CHEMBL3885861, “Open TG-GATES”
